In general, TGI refers to the concentration giving total growth inhibition. What is called GI50 is the concentration that inhibits growth by half.

For 20 molecules, TGI and GI50 results are on record in PubChem BioAssay (NCI).

“And” between values parts separate entries of the source, which are not always exact repeats. Equal values may be shown once.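 Values below derive from 48-hour exposures of cells grown in 96-well plates, with endpoints linearly interpolated between the two concentrations bracketing the appropriate inhibition level. Abbreviation: GI50, concentration required for 50% inhibition of growth. Definition used: TGI = concentration required for complete inhibition of growth.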 Where a SMILES comes first, the peptide text is derived from it. Bridges are numbered along the chain shown (N, C = ends). The star is where a group is joined. Cbz = O=C(OCc1ccccc1)*

What all share (test): DTP human tumour cell line panel, 48 h
The subject of assay [1] is HOP-92 NSCLC.
In assay [2] the test system is CCRF-CEM leukemia.
The subject of assay [3] is HCT-116 colon.
Assay [4] concerns MOLT-4 leukemia.
The test system of assay [5] is OVCAR-3 ovarian.
In assay [6] the test system is HL-60(TB) leukemia.
The subject of assay [7] is HCC-2998 colon.
In assay [8] the test system is MDA-N.
Assay [9] relates to NCI-H226 lung.
In assay [10] the test system is HT29 colon.

For the molecule `CN(C)Cc1cc(C(=O)/C=C/c2cccc(Cl)c2)cc(CN(C)C)c1O`, the TGI was found to be 18.2 µM in assay [1]; 8.25 µM in assay [2]; 13.3 µM in assay [3]; 14.1 µM in assay [4]; 9.21 µM in assay [5]; 4.58 µM in assay [6]. Also, the TGI amounted to 23.8 µM in assay [7], 10.3 µM in assay [8], 19.6 µM in [9] and 16.6 µM in assay [10].

With `CCN1CCCC(Nc2cc(C)nc(/N=C(/N)Nc3ccc(Cl)c(Cl)c3)n2)C1` (stereo not drawn), the TGI in [1] stood at 3.33 µM; in assay [2], 2.4 µM; in assay [3] it was 2.76 µM; in assay [4], 2.42 µM; in assay [5] it was 3.59 µM; in [6], 1.33 µM. Moreover, the TGI in assay [7] is 1.89 µM; in [8], 3.16 µM; in assay [10], 15.7 µM.

For the molecule `COC(=O)/C=C/c1cc(OC)c2oc(-c3ccc(OC)c(OC)c3)c(C(=O)OC)c2c1`, the TGI in [1], in assay [2], in [4], in assay [5], in assay [6] and in assay [7] was more than 100 µM throughout. Further, the TGI in assay [8] and in assay [10] was more than 100 µM throughout.

With `Oc1nc(N/N=C/c2ccccc2)[nH]c1/C=C1\C=Nc2ccccc21`, the TGI in assay [1] is more than 100 µM; in [2], 74.3 µM; in assay [3], more than 100 µM; in [4] it was more than 100 µM; in assay [5], more than 100 µM; in assay [6] it was more than 100 µM. The TGI in assay [8], in assay [9] and in assay [10] was more than 100 µM each time.

Turning to `CCn1c2ccc(O)c(C(=O)OC)c2c2cc3ccccc3c(O)c21`, the TGI is 21.3 µM in assay [1]; 70 µM in assay [2]; 29.2 µM in assay [3]; 73.5 µM in assay [4]; 47.3 µM in [5]; 60 µM in [6]. The TGI in assay [7] was determined as 38.3 µM; in [8] it was 72.4 µM; in [9], 83.8 µM; in assay [10], 56.2 µM.

`O=c1[nH]c2cc3cccnc3c(Cl)c2nc1CBr`: the TGI was 35.2 µM in [1]; 31.1 µM in assay [2]; 25.8 µM in [3]; more than 100 µM in assay [4]; 35.5 µM in assay [5]; 55.2 µM in assay [6]. The TGI in assay [8] was 34.9 µM; in assay [9], 56.1 µM; in [10], 35.9 µM.

Take `Cc1nn(C)c2nc3ccc(Cl)cc3c(-c3ccccc3)c12`: the TGI in [1], in [2], in assay [3], in assay [4], in [5] and in assay [6] was more than 100 µM each time. In addition, the TGI in assay [7], in assay [8], in [9] and in assay [10] was more than 100 µM throughout.

Regarding `Cc1cc(O)ccc1C1(c2ccc(F)cc2)OC(=O)c2ccccc21` (stereo not drawn), the TGI was 12.5 µM in assay [1]; more than 95.5 µM in assay [2]; 12.6 µM in assay [3]; more than 100 µM in assay [4]; 0.882 µM in [5]; more than 72.2 µM in [6]. The TGI in [7] was found to be 15.3 µM; in assay [8] it was 25 µM; in assay [9] it was 8.28 µM; in [10], 18 µM.

With `Cc1ccc(OCC2OC(n3cnc4c(Cl)ncnc43)CC2Oc2ccc(C)cc2)cc1` (stereo not drawn), the GI50 in assay [1] is 5.22 µM and 2.22 µM; in [3], 2.4 µM and 14.3 µM; in assay [5], 3.16 µM and 8.9 µM; in [6], 2.79 µM; in assay [7], 5.44 µM and 16.8 µM; in [8], 4.63 µM and 16.6 µM. In addition, the GI50 in assay [10] was 1.69 µM and 6.15 µM. In addition, the TGI in assay [1] was 24.2 µM and 5.57 µM; in assay [2] it was more than 40 µM; in assay [3] it was 7.13 µM and 38.2 µM; in assay [4], 12.7 µM and 7.95 µM; in [5], 9.72 µM and 27.7 µM; in [6], 7.17 µM. In addition, the TGI in assay [7] was 12.8 µM and 37 µM; in assay [8] it was 11.2 µM and 35.7 µM; in assay [9] it was 31.7 µM and 44.1 µM; in assay [10], 3.13 µM and 21.2 µM.

On to `COc1cc([C@H]2Oc3c(OC)cc(CCCO)cc3[C@@H]2CO)ccc1O`, for which the TGI in assay [1], in assay [2], in assay [3], in [4], in assay [5] and in assay [6] was more than 100 µM throughout. In addition, the TGI in assay [7], in [8], in assay [9] and in [10] was more than 100 µM throughout.

`N#CC12C(=O)N3C(=NC(c4ccccc4)NC3c3ccccc3)C1(C#N)C(c1ccccc1)NC1=C2CCCC1` (stereo not drawn): the TGI was more than 100 µM in assay [1]; 77.8 µM in assay [2]; more than 100 µM in [3]; more than 100 µM in assay [4]; more than 100 µM in [5]; more than 100 µM in [6]. Moreover, the TGI in assay [7], in assay [8], in assay [9] and in assay [10] was more than 100 µM each time.

Regarding `COc1cc(/C=C2\Cc3cc(OC)c(OC)cc3C2=O)cc(OC)c1`, the TGI in [1] is more than 57.5 µM; in assay [2] it was more than 100 µM; in assay [3], more than 52.2 µM; in [4], more than 100 µM; in [5] it was more than 100 µM; in assay [6] it was more than 100 µM. The values for the TGI in assay [8], in [9] and in [10] were 39.2 µM, more than 100 µM and more than 100 µM, respectively.

For `CCOC(=O)C(NC(=O)CC)(Nc1ccc(S(=O)(=O)Nc2nc(C)cc(C)n2)cc1)C(F)(F)F` (stereo not drawn), the TGI in assay [1], in [2], in assay [3], in [4], in assay [5] and in [6] was more than 100 µM each time. In addition, the TGI in [7], in assay [8], in assay [9] and in assay [10] was more than 100 µM throughout.

In the case of `COc1cc(/C=N\NC(=O)C[N+](C)(C)C)cc(OC)c1OC`, the TGI in [1], in [2], in [3], in assay [4], in assay [5] and in [6] was more than 10 µM each time. Further, the TGI in [7], in [8] and in [10] was more than 10 µM each time.

For `O=C(N/N=C/c1ccc(Cl)cc1)c1cc(I)cc(I)c1O`, the TGI in [1], in assay [2], in [3], in assay [4], in assay [5] and in [6] was more than 100 µM in each case. The TGI in assay [8], in assay [9] and in assay [10] was more than 100 µM throughout.

In the case of `CCOC(=O)c1c(NCc2ccccc2)n(-c2ccccc2)c(=S)n(-c2ccccc2)c1=O`, the TGI in assay [1], in assay [2], in assay [4], in assay [5], in [6] and in assay [7] was more than 100 µM throughout. The TGI in [8], in assay [9] and in assay [10] was more than 100 µM in each case.

Consider `COC(=O)C1CCCCNC(=O)CCC(NC(=O)OCc2ccccc2)C(=O)N1` (stereo not drawn) (Cbz-Glu-Lys-OMe; lactam 1-2; configuration not given here), for which the TGI in assay [1] is 95.1 µM; in [2], more than 100 µM; in assay [3], more than 100 µM; in [4], more than 100 µM; in [5], more than 100 µM; in assay [6] it was more than 100 µM. For the same molecule, the TGI in [8], in assay [9] and in [10] was more than 100 µM in each case.

For `Cc1cc(C)c2c(=N)c3ccccc3n(CCCCCCO)c2n1`, the TGI is 16 µM in assay [1]; 9.64 µM in [2]; 17.6 µM in assay [4]; 25.9 µM in [5]; 6.19 µM in [6]; 7.07 µM in [7]. Moreover, the TGI in assay [8] was 7.42 µM; in assay [9] it was 11.1 µM; in [10], 3.93 µM.

In the case of `CCOP(=O)(OCC)C1(O)CC(n2cc(C)c(=O)[nH]c2=O)OC1CO` (stereo not drawn), the TGI in [1], in assay [3], in assay [5], in assay [6], in [7] and in assay [8] was more than 100 µM throughout. The TGI in [9] and in assay [10] was more than 100 µM each time.

Turning to `OC(CCN1CCN(CCOC(c2ccccc2)c2ccccc2)CC1)c1ccc(Br)cc1` (stereo not drawn), the TGI in [1] worked out at 25.1 µM; in assay [2] it was 45.3 µM; in [3] it was 23.3 µM; in [5] it was 28 µM; in [6] it was 28.8 µM; in assay [7] it was 3.96 µM. The TGI came out at 22.9 µM in assay [8], 37.6 µM in [9] and 16.5 µM in [10].
